Measured values published in US11136362B2, “Peptide modulators of specific calcineurin protein-protein interactions” (The Board of Trustees of the Leland Stanford Junior …, priority 2016, dated 2021).
Read-outs that look alike come from different tables or passages of the source. Ends that are not written are not given here.

How the values were obtained:
[1] = target: T1, TRPV1 (Homo sapiens, UniProt Q8NER1); details: in vivo; cited from earlier work
T1 construct: host or cells: human trial subjects (endogenous)
T1 sequence (Q8NER1 whole entry): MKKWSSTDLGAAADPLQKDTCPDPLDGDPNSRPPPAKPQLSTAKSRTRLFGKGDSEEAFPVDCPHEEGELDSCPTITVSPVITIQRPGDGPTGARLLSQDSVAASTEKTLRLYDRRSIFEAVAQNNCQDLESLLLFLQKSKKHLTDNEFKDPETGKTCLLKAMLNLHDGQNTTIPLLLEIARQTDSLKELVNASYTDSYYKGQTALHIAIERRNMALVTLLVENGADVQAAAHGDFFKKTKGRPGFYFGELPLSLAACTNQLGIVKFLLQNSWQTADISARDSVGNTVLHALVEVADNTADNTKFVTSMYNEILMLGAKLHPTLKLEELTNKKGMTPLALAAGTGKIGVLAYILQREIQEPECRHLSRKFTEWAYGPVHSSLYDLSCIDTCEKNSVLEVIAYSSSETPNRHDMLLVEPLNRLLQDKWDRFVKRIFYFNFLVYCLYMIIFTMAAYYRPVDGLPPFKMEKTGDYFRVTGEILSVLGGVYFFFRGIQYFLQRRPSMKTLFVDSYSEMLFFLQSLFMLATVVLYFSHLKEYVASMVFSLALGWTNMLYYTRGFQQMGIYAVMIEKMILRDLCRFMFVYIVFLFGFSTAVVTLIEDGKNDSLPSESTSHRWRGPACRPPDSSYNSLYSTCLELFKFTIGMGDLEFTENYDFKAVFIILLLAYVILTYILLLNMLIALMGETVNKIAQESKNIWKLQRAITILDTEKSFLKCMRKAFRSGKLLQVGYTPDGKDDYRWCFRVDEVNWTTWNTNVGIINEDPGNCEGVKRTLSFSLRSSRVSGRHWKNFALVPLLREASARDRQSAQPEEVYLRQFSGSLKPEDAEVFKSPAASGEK

[2] = tested on: Sprague-Dawley rats
[3] = tested on: Sprague-Dawley rats; type: in vivo, rat; details: for HR / MAP / RPP: CAP 0.3 mg/kg, CsA 2.5 mg/kg, V1-cal 1 mg/kg, given 5 minutes prior to reperfusion
[4] = tested on: primary neonatal cardiomyocytes (PNCM); test: Mitochondrial membrane potential by live cell imaging (TMRE/CMXRos), normoxia; type: cell-based, rat
Source text: • Primary Neonatal Cardiomyocyte Isolation: Rat pups 1-3 days of age were used for primary neonatal cardiomyocyte isolation as previously described (Disatnik et al., Journal of the American Heart Association, 2013. 2:e000461). • Peptide Synthesis: Peptides were synthesized using microwave chemistry on a Liberty Microwave Peptide Synthesizer (CEM Corporation) (Gross et al., Basic Research in Cardiology, 2013. 108:381). Peptides were synthesized as one polypeptide with TAT47-57 carrier in the following order: N-terminus-TAT47-57-spacer (Gly-Gly)-cargo-C-terminus. • RT PCR: Total RNA was isolated from PNCM on day 4 in culture and H9C2 cells at passages 18, 23, 24 (Ambion RNAqueous kit). To reduce DNA contamination in the preparations, the isolated total RNA was subject to precipitation with lithium chloride and DNase digestion (Ambion DNase free). cDNA was generated from mRNA using Takara Primescript cDNA synthesis kit with oligo dT primers. Previously described primers, forward: […] (SEQ ID NO:112) and reverse: […] […] The amplified PCR product was subcloned into the pCR TOPO vector (Invitrogen) and sequenced. • Quantitative PCR: cDNA from mRNA was generated from H9C2, PNCM, and heart tissues (RA, LA, RV, LV) as described above. […]

[5] = tested on: isolated rat hearts; test: Isolated heart model of ischemia-reperfusion injury; details: for heart rate when infused: 10 minutes prior to ischemia
[6] = tested on: H9C2 cells; test: H9C2 cell model of ischemia-reoxygenation, lactate dehydrogenase release; type: cell-based
[7] = tested on: Sprague-Dawley rats; test: In vivo rat remote conditioning (abdominal incision before LAD ischemia-reperfusion)
[8] = Peptide stability, trypsin digestion analyzed by RP-HPLC; type: in vitro ADME; details: 20 minutes after exposure to trypsin; read-out: degraded
Experimental: FIG. 12: Determination of peptide stability. A. At baseline a single peak at 5 minutes was noted when V1-cal was analyzed by RP-HPLC (arrow in green). B. 10 minutes after trypsin digestion, V1-cal is still detected (arrow in green), yet is 75% degraded with the with multiple peaks detected as degradation products of V1-cal (black arrows). C. 20 minutes after exposure to trypsin, V1-cal is 100% degraded (with no peak at 5 minutes and multiple other peaks shown with black arrows detected).

[9] = tested on: Sprague-Dawley TRPV1 knockout rats; test: In vivo LAD ischemia-reperfusion injury model in TRPV1 knockout rats; parameters: species or system rat
[10] = 15 min Ischemia, capsaicin 0.1 mg/kg
[11] = 15 min Ischemia, capsaicin 0.3 mg/kg
[12] = 15 min Ischemia, capsaicin 1.0 mg/kg
[13] = 15 min Ischemia, capsaicin 3.0 mg/kg
[14] = 2 hrs Reperfusion, capsaicin 0.1 mg/kg
[15] = 2 hrs Reperfusion, capsaicin 0.3 mg/kg
[16] = 2 hrs Reperfusion, capsaicin 1.0 mg/kg
[17] = 2 hrs Reperfusion, capsaicin 3.0 mg/kg

CC(=O)Nc1nc2c(Oc3cc(-c4ccc(C(F)(F)F)cc4)ncn3)cccc2s1 [AMG517]
adverse effect in human clinical trials [1]: caused hyperthermia

COc1cc(CNC(=O)CCCC/C=C/C(C)C)ccc1O [capsaicin]
infarct size ([2]; 0.1 mg/kg and 1.0 mg/kg): partial effects
infarct size ([2]; 0.3 mg/kg): maximally decreased infarct size
myocardial infarct size ([2]; 3.0 mg/kg): failed to reduce myocardial infarct size
myocardial infarct size ([2]; 0.1-1.0 mg/kg): reduced myocardial infarct size
heart rate after intravenous administration ([2]; 0.1-3.0 mg/kg intravenously): dose-dependently increased heart rate
HR [2, 10]: 373 ± 10 beats/min
MAP [2, 10]: 110 ± 7 mmHg
RPP [2, 10]: 47 ± 4 mmHg/1000
HR [2, 11]: 360 ± 21 beats/min
MAP [2, 11]: 89 ± 14 mmHg
RPP [2, 11]: 40 ± 7 mmHg/1000
HR [2, 12]: 385 ± 15 beats/min
MAP [2, 12]: 104 ± 10 mmHg
RPP [2, 12]: 46 ± 5 mmHg/1000
HR [2, 13]: 420 ± 9 beats/min
MAP [2, 13]: 113 ± 5 mmHg
RPP [2, 13]: 53 ± 3 mmHg/1000
HR [2, 14]: 362 ± 6 beats/min
MAP [2, 14]: 86 ± 5 mmHg
RPP [2, 14]: 39 ± 2 mmHg/1000
HR [2, 15]: 368 ± 6 beats/min
MAP [2, 15]: 85 ± 3 mmHg
RPP [2, 15]: 38 ± 2 mmHg/1000
HR [2, 16]: 367 ± 3 beats/min
MAP [2, 16]: 79 ± 3 mmHg
RPP [2, 16]: 36 ± 2 mmHg/1000
HR [2, 17]: 370 ± 4 beats/min
MAP [2, 17]: 72 ± 4 mmHg
RPP [2, 17]: 35 ± 2 mmHg/1000
HR ([2]; Baseline, capsaicin 0.1 mg/kg): 377 ± 13 beats/min
MAP ([2]; Baseline, capsaicin 0.1 mg/kg): 128 ± 4 mmHg
RPP ([2]; Baseline, capsaicin 0.1 mg/kg): 60 ± 5 mmHg/1000
HR ([2]; Baseline, capsaicin 0.3 mg/kg): 370 ± 11 beats/min
MAP ([2]; Baseline, capsaicin 0.3 mg/kg): 137 ± 7 mmHg
RPP ([2]; Baseline, capsaicin 0.3 mg/kg): 60 ± 5 mmHg/1000
HR ([2]; Baseline, capsaicin 1.0 mg/kg): 353 ± 11 beats/min
MAP ([2]; Baseline, capsaicin 1.0 mg/kg): 131 ± 6 mmHg
RPP ([2]; Baseline, capsaicin 1.0 mg/kg): 55 ± 3 mmHg/1000
HR ([2]; Baseline, capsaicin 3.0 mg/kg): 357 ± 8 beats/min
MAP ([2]; Baseline, capsaicin 3.0 mg/kg): 127 ± 4 mmHg
RPP ([2]; Baseline, capsaicin 3.0 mg/kg): 53 ± 2 mmHg/1000
HR ([3]; 15 min Ischemia): 377 ± 11 beats/min
MAP ([3]; 15 min Ischemia): 118 ± 10 mmHg
RPP ([3]; 15 min Ischemia): 51 ± 5 mmHg/1000
HR ([3]; 2 hrs Reperfusion): 363 ± 9 beats/min
MAP ([3]; 2 hrs Reperfusion): 87 ± 7 mmHg
RPP ([3]; 2 hrs Reperfusion): 39 ± 3 mmHg/1000
HR ([3]; Baseline): 370 ± 6 beats/min
MAP ([3]; Baseline): 134 ± 3 mmHg
RPP ([3]; Baseline): 58 ± 2 mmHg/1000
myocardial infarct size ([3]; given just prior to reperfusion, n=6/group, control 61±2%): 45±1%
infarct size reduction when compared to control ([3]; single intravenous bolus 5 minutes prior to reperfusion): 27%
mitochondrial membrane potential (TMRE) ([4]; 0.1-10 μM, over 30 minutes): dose-dependently decreased mitochondrial membrane potential
heart rate, isolated un-paced rat hearts ([5]; capsaicin 0.1 μM versus vehicle (DMSO)): increased heart rate during the first 15 minutes of infusion
LDH release ([6]; 0.1 μM): reduced LDH release
reduction of LDH release ([6]; 1 and 10 μM): did not occur

Oc1cc2c(cc1O)CN(C(=S)NCCc1ccc(Cl)cc1)CCC2 [capsazepine]
effect on incision-induced infarct size reduction ([7]; 3 mg/kg, internal jugular vein, 10 minutes before the incision): blocked
HR (heart rate) ([7]; 15 min Ischemia): 396 ± 10 beats/min
MAP (mean arterial pressure) ([7]; 15 min Ischemia): 115 ± 9 mmHg
RPP (rate pressure product) ([7]; 15 min Ischemia): 52 ± 5 mmHg/1000
HR (heart rate) ([7]; 2 hrs Reperfusion): 374 ± 5 beats/min
MAP (mean arterial pressure) ([7]; 2 hrs Reperfusion): 82 ± 3 mmHg
RPP (rate pressure product) ([7]; 2 hrs Reperfusion): 39 ± 1 mmHg/1000
HR (heart rate) ([7]; Baseline): 384 ± 5 beats/min
MAP (mean arterial pressure) ([7]; Baseline): 121 ± 4 mmHg
RPP (rate pressure product) ([7]; Baseline): 55 ± 2 mmHg/1000
infarct size, agent alone, compared to control ([7]; capsazepine alone): no differences were noted for infarct size compared to the control group
infarct size sparing effect of capsaicin ([2]; CPZ 3 mg/kg, CsA 2.5 mg/kg, 40 minutes prior to ischemia): blocked the infarct size sparing effect of capsaicin
change in heart rate afforded by capsaicin ([2]; capsaicin 0.3 mg/kg, CPZ 3 mg/kg, CsA 2.5 mg/kg): reduced the change in heart rate
changes in mitochondrial membrane potential induced by capsaicin ([4]; treated 10 minutes prior to capsaicin): blocked

YGRKKRRQRRRGGAIIITILDTEIS [A5-cal]
heart rate when infused [5]: neither peptide had any effects on heart rate

YGRKKRRQRRRGGRAITILDTEKS [V1-cal]
metabolised at 20 min [8]: 100%
HR ([3]; 15 min Ischemia): 432 ± 10 beats/min
MAP ([3]; 15 min Ischemia): 110 ± 5 mmHg
RPP ([3]; 15 min Ischemia): 47 ± 3 mmHg/1000
HR ([3]; 2 hrs Reperfusion): 389 ± 15 beats/min
MAP ([3]; 2 hrs Reperfusion): 68 ± 5 mmHg
RPP ([3]; 2 hrs Reperfusion): 26 ± 3 mmHg/1000
HR ([3]; Baseline): 428 ± 6 beats/min
MAP ([3]; Baseline): 115 ± 5 mmHg
RPP ([3]; Baseline): 49 ± 3 mmHg/1000
HR ([9]; 15 min Ischemia): 446 ± 13 beats/min
MAP ([9]; 15 min Ischemia): 114 ± 7 mmHg
RPP ([9]; 15 min Ischemia): 56 ± 4 mmHg/1000
TIME ([9]; 15 min Ischemia): 37.1 ± 0.1
MAP ([9]; 2 hrs Reperfusion): 84 ± 8 mmHg
RPP ([9]; 2 hrs Reperfusion): 40 ± 4 mmHg/1000
TIME ([9]; 2 hrs Reperfusion): 37 ± 0.1
HR ([9]; Baseline): 439 ± 12 beats/min
MAP ([9]; Baseline): 123 ± 6 mmHg
RPP ([9]; Baseline): 61 ± 4 mmHg/1000
TIME ([9]; Baseline): 36.9 ± 0.2
heart rate when infused [5]: neither peptide had any effects on heart rate
